PubChem BioAssay AID234 (DTP/NCI, 2004)
Values joined by “and” are separate entries in the source; they are usually repeats but may differ in a detail not shown here. Equal values may be shown once. Results filed as inconclusive are left out.

System: C3AKF1 mice, hamster liver cystadenocarcinoma s.c., tumor weight T/C
Test: NCI In Vivo Anticancer Drug Screen. Data for tumor model Cystadenocarcinoma, Liver (No. 1) (Hamster) (subcutaneous) in C3AKF1 (CHKRF1) mice
Conditions: endpoint: mean tumor weight, higher = larger tumour
Method: The antitumor activity of compounds was measured in mice bearing transplantable tumors. Survival or tumor size were measured and the results are expressed as the measurement made in the treated group (T) divided by the measurement made in the vehicle treated control group (C). The tumor model used in this assay is Cystadenocarcinoma, Liver (No. 1) (Hamster) (subcutaneous) in C3AKF1 (CHKRF1) mice

[1] = dose: 15.0 mg/kg/injection, schedule: Q01DX010 (ip), vehicle: carboxymethylcellulose (CMC)
[2] = dose: 30.0 mg/kg/injection, schedule: Q01DX010 (ip), vehicle: carboxymethylcellulose (CMC)
[3] = dose: 60.0 mg/kg/injection, schedule: Q01DX010 (ip), vehicle: carboxymethylcellulose (CMC)
[4] = dose: 25.0 mg/kg/injection, schedule: Q01DX010 (ip), vehicle: carboxymethylcellulose (CMC)
[5] = dose: 50.0 mg/kg/injection, schedule: Q01DX010 (ip), vehicle: carboxymethylcellulose (CMC)
[6] = dose: 100.0 mg/kg/injection, schedule: Q01DX010 (ip), vehicle: carboxymethylcellulose (CMC)

Structure (SMILES): CC(C)CCSc1nc(N)nc2nc[nH]c12
- T/C (dose: 45.0 mg/kg/injection, schedule: Q01DX010 (ip), vehicle: carboxymethylcellulose (CMC)): 74 % of control
- T/C (dose: 90.0 mg/kg/injection, schedule: Q01DX010 (ip), vehicle: carboxymethylcellulose (CMC)): 70 % of control
- T/C (dose: 180.0 mg/kg/injection, schedule: Q01DX010 (ip), vehicle: carboxymethylcellulose (CMC)): 94 % of control

Structure (SMILES): CC(Cl)CN(Cc1cc(O)c(CN(CC(C)Cl)CC(C)Cl)cc1O)CC(C)Cl (configuration not stated)
- T/C (dose: 62.5 mg/kg/injection, schedule: Q01DX010 (ip), vehicle: carboxymethylcellulose (CMC)): 64 % of control

Structure (SMILES): CN(C)c1ccc(/C=C\c2ccnc3ccccc23)cc1
- T/C (dose: 1.25 mg/kg/injection, schedule: Q01DX010 (ip), vehicle: carboxymethylcellulose (CMC)): 98 % of control
- T/C (dose: 2.5 mg/kg/injection, schedule: Q01DX010 (ip), vehicle: carboxymethylcellulose (CMC)): 95 % of control
- T/C (dose: 5.0 mg/kg/injection, schedule: Q01DX010 (ip), vehicle: carboxymethylcellulose (CMC)): 96 % of control
- T/C (dose: 10.0 mg/kg/injection, schedule: Q01DX010 (ip), vehicle: carboxymethylcellulose (CMC)): 88 % of control and 89 % of control
- T/C (dose: 20.0 mg/kg/injection, schedule: Q01DX010 (ip), vehicle: carboxymethylcellulose (CMC)): 67 % of control

Structure (SMILES): CCCCn1cnc2c(=S)nc(N)[nH]c21
- T/C (dose: 1.0 mg/kg/injection, schedule: Q01DX010 (ip), vehicle: carboxymethylcellulose (CMC)): 82 % of control
- T/C (dose: 7.0 mg/kg/injection, schedule: Q01DX010 (ip), vehicle: carboxymethylcellulose (CMC)): 60 % of control and 77 % of control
- T/C [1]: 50 % of control
- T/C [2]: 49 % of control

Structure (SMILES): CCN(CC)CCN1C(=O)c2cccc3cccc(c23)C1=O
- T/C (dose: 25.0 mg/kg/injection, schedule: Q01DX010 (ip), vehicle: saline): 90 % of control
- T/C (dose: 50.0 mg/kg/injection, schedule: Q01DX010 (ip), vehicle: saline): 163 % of control
- T/C (dose: 100.0 mg/kg/injection, schedule: Q01DX010 (ip), vehicle: saline): 109 % of control

Structure (SMILES): CCC1=C(c2cc(Cl)c3ccccc3c2OCC(=O)O)OC(CC)(C(=O)c2cc(Cl)c3ccccc3c2OCC(=O)O)CC1 (configuration not stated)
- T/C [2]: 90 % of control
- T/C [3]: 87 % of control
- T/C (dose: 120.0 mg/kg/injection, schedule: Q01DX010 (ip), vehicle: carboxymethylcellulose (CMC)): 64 % of control

Structure (SMILES): CC(=O)NCCSC(=O)C(=O)SCCNC(C)=O
- T/C [4]: 72 % of control
- T/C [5]: 111 % of control
- T/C [6]: 65 % of control

Structure (SMILES): CCN(CC)CC(C)Nc1ccc(C)c2sc3ccccc3c(=O)c12 (configuration not stated)
- T/C [4]: 98 % of control
- T/C [5]: 87 % of control
- T/C [6]: 76 % of control

Structure (SMILES): O=S(=O)(O)C(Nc1ccccc1)c1ccccc1 (configuration not stated)
- T/C (dose: 100.0 mg/kg/injection, schedule: Q01DX010 (ip), vehicle: water): 88 % of control
- T/C (dose: 200.0 mg/kg/injection, schedule: Q01DX010 (ip), vehicle: water): 66 % of control
- T/C (dose: 400.0 mg/kg/injection, schedule: Q01DX010 (ip), vehicle: water): 84 % of control

Structure (SMILES): NC(=O)/C=C/C(=O)O (tested in a mixture with another compound)
- T/C (dose: 31.0 mg/kg/injection, schedule: Q#A X010 (ip), vehicle: saline): 68 % of control

Structure (SMILES): C1CC[N-]CC1.C1CC[N-]CC1.C1CC[N-]CC1.C1CC[N-]CC1.[Cl][Co][Cl]
- T/C (dose: 35.0 mg/kg/injection, schedule: Q01DX010 (ip), vehicle: saline): 84 % of control
- T/C (dose: 55.0 mg/kg/injection, schedule: Q01DX010 (ip), vehicle: saline): 82 % of control
- T/C (dose: 80.0 mg/kg/injection, schedule: Q01DX010 (ip), vehicle: saline): 71 % of control

Structure (SMILES): COc1ccccc1NC(=O)CSC(N)=O
- T/C [5]: 92 % of control
- T/C [6]: 86 % of control
- T/C (dose: 200.0 mg/kg/injection, schedule: Q01DX010 (ip), vehicle: carboxymethylcellulose (CMC)): 95 % of control
- T/C (dose: 400.0 mg/kg/injection, schedule: Q01DX010 (ip), vehicle: carboxymethylcellulose (CMC)): 38 % of control

Structure (SMILES): Cc1cc(N)c2cc(NC(=O)CCCCCCCCC(=O)Nc3ccc4nc(C)cc(N)c4c3)ccc2n1
- T/C (dose: 31.0 mg/kg/injection, schedule: Q01DX010 (ip), vehicle: carboxymethylcellulose (CMC)): 68 % of control
- T/C (dose: 62.0 mg/kg/injection, schedule: Q01DX010 (ip), vehicle: carboxymethylcellulose (CMC)): 50 % of control
- T/C (dose: 125.0 mg/kg/injection, schedule: Q01DX010 (ip), vehicle: carboxymethylcellulose (CMC)): 38 % of control

Structure (SMILES): O=C1N(Cl)C(=O)C(c2ccc(Cl)cc2)(c2ccc(Cl)cc2)N1Cl
- T/C [1]: 67 % of control
- T/C [2]: 85 % of control
- T/C [3]: 61 % of control
